Key:
[1] = target: T1, Adenosine receptor A1 (Rattus norvegicus) (UniProt P25099); test: Bmax value against A1 receptor
T1 sequence (whole entry): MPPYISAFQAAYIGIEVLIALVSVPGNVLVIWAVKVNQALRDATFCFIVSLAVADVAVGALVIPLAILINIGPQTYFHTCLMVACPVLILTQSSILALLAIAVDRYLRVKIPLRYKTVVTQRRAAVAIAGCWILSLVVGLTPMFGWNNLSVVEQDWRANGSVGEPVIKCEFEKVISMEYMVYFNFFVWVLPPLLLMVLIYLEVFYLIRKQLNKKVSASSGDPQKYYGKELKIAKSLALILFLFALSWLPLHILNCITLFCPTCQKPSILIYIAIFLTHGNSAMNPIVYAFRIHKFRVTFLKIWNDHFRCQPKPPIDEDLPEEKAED

[2] = target: T2, Adenosine receptor A1 (Rattus norvegicus, UniProt P25099); test: Binding affinity towards adenosine A1 receptor in rat brain membrane(KD); format: tissue-based
T2 sequence (P25099 whole entry): T1 sequence (whole entry)

[3] = target: T2, Adenosine receptor A1; test: Inhibition of photolabeling of 34 kDa polypeptide in adenosine A1 receptor

| Bmax [1] [fmol/mg] | Kd [2] [nM] | IC50 [3] [nM] | Structure (SMILES) |
| --- | --- | --- | --- |
| 485 | 0.8 |  | CCCn1c(=O)c2nc(-c3ccc(OCC(=O)O)cc3)[nH]c2n(CCc2ccc(N)c(I)c2)c1=O |
|  |  | 16 | CCCn1c(=O)c2nc(-c3ccc(OCC(=O)O)cc3)[nH]c2n(CCc2ccc(N)cc2)c1=O |
|  | 1.2 |  | CCCn1c(=O)c2nc(-c3ccc(OCC(=O)O)cc3)[nH]c2n(CCc2ccc(N=[N+]=[N-])c(I)c2)c1=O |
| 485 | 0.8 |  | CCCn1c(=O)c2nc(-c3ccc(OCC(=O)O)cc3)[nH]c2n(Cc2ccc(N)c(I)c2)c1=O |

Reference: ChEMBL document CHEMBL1124077, “Photoaffinity labeling adenosine A1 receptors with an antagonist 125I-labeled aryl azide derivative of 8-phenylxanthine” (J Med Chem, 1988)
